The test system of one test is HEK293 cells. As to the kind of experiment: NAM/PI staining of outgrown HEK293 cells, fluorescence microscopy. Format: cell-based, Human. The following applies: HEK293 cells treated with 0.25% Triton X-100; 10 μg/mL NAM. The method, then: Materials and Methods. HEK293 cells were grown at 37° C. in a humidified air atmosphere with 5% CO2 in DMEM (Invitrogen, #31966) supplemented with 10% heat-inactivated fetal bovine serum (Invitrogen, #10108-165). Cells were harvested with 0.5 mL of trypsin (Invitrogen, #25300) and neutralized with 5 mL medium (DMEM+10% FCS) two days after they had reached full confluency. These outgrown HEK293 cells (cell density 1.6×10^6, 78% viable determined using the NC-100 NucleoCounter system following the manufacturer's (ChemoMetec) protocol) were stained with 10 μg/mL NAM (Sigma, #01665). Another cell sample were treated with 0.25% Triton X-100 (Sigma, #T9284) and hereafter added 10 μg/mL NAM. After staining, each cell sample was loaded into a NucleoCassette, containing the DNA stain propidium iodide (PI). The cells were investigated using an Olympus IX50 fluorescence microscope, and images were captured using a Lumenera CCD camera and in-house developed software. PI and NAM fluorescence were detected using, respectively, U-MWG2 (green long pass: 510-550 nm) and U-MNUA2 (UV band pass, 330-385 nm) filter cubes (Olympus).

The test system of test [1] is bone marrow derived dendritic cells (BM-DCs). The test is described as follows: Staining of bone marrow derived dendritic cells with labelling agent and PI. Format: cell-based, murine. The following applies: dendritic cells 97% viable; 10 μL mCB (100 μg pr. mL DMSO) to 90 μL cells; incubated at room temperature for 1 hour. From the text:
Materials and Methods. Dendritic cells were developed from murine bone marrow derived cells as described by “Lutz, M. B., N. Kukutsch, A. L. Ogilvie, S. Rossner, F. Koch, N. Romani, and G. Schuler. 1999. An advanced culture method for generating large quantities of highly pure dendritic cells from mouse bone marrow. J Immunol Methods 223:77-92”. Bone marrow cells were harvested aseptically in the laminar flow hood as described in example 11. Washed and resuspended bone marrow cells were resuspended in RPMI 1640 (Invitrogen, #61870) supplemented with 10% heat-inactivated fetal bovine serum (Invitrogen, #10108-165), 100 U/mL penicillin and 100 μg/mL streptomycin (Invitrogen, #15140-122). […] 90 μL dendritic cells (cell density 1.2×10^6, 97% viable determined using the NC-100 NucleoCounter system following the manufacturer's (ChemoMetec A/S) protocol) were added 10 μL NAM (N-(9-acridinyl)maleimide, Sigma, #01665, CAS no. 49759-20-8) dissolved in DMSO (100 μg NAM pr. mL DMSO) and mixed by pipetting. […] The cells were investigated using an Olympus IX50 fluorescence microscope, and images were captured using a Lumenera CCD camera and in-house developed software. PI and NAM fluorescence were detected using, respectively, U-MWG2 (green long pass: 510-550 nm) and U-MNUA2 (UV band pass, 330-385 nm) filter cubes (Olympus). […]

A further test relates to Jurkat (JM) cells. As to the kind of experiment: Staining of proliferating Jurkat cells with labelling agent and propidium iodide, fluorescence microscopy. The format is cell-based. The following applies: 10 μL agent (100 μg pr. mL DMSO) added to 90 μL cells, only exception PI positive cells. The method, then: (§1) Materials and Methods. Jurkat (JM) cells were grown at 37° C. in a humidified air atmosphere with 5% CO2 in RPMI (Invitrogen, #61870) supplemented with 10% heat-inactivated fetal bovine serum (Invitrogen, #10108-165). 90 μL proliferating Jurkat cells (cell density 1.2×10^6, 99% viable determined using the NC-100 NucleoCounter system following the manufacturer's (ChemoMetec A/S) protocol) were added 10 μL NAM (N-(9-acridinyl)maleimide, Sigma, #01665, CAS no. 49759-20-8) dissolved in DMSO (100 μg NAM pr. mL DMSO) and mixed by pipetting. Cells were loaded into a NucleoCassette, containing the DNA stain propidium iodide (PI). The cells were investigated using an Olympus IX50 fluorescence microscope, and images were captured using a Lumenera CCD camera and in-house developed software. PI and NAM fluorescence were detected using, respectively, U-MWG2 (green long pass: 510-550 nm) and U-MNUA2 (UV band pass, 330-385 nm) filter cubes (Olympus).
as §1, with “1.0×10^6,” for “1.2×10^6,”, “(ChemoMetec)” for “(ChemoMetec A/S)”, “CPM (7-diethylamino-3-[4′-maleimidylphenyl]-4-methylcoumarin, Chemodex Ltd.,” for “NAM (N-(9-acridinyl)maleimide, Sigma, #01665,”, “76877-33-3)” for “49759-20-8)”, “CPM” for “NAM”
as §1, with “1.1×10^6, 98%” for “1.2×10^6, 99%”, “(ChemoMetec)” for “(ChemoMetec A/S)”, “PM (N-(1-Pyrenyl)maleimide, Sigma P7908” for “NAM (N-(9-acridinyl)maleimide, Sigma, #01665,”, “42189-56-0)” for “49759-20-8)”, “PM” for “NAM”, “Cells were loaded into a NucleoCassette, containing the DNA stain propidium iodide (PI).” left out
Materials and Methods. […] 90 μL proliferating Jurkat cells (cell density 1.1×10^6, 98% viable determined using the NC-100 NucleoCounter system following the manufacturer's (ChemoMetec) protocol) were added 10 μL CPI (7-diethylamino-3-((4′-(iodoacetyl)amino)phenyl)-4-methylcoumarin, Sigma 78264 CAS no. 76877-34-4) dissolved in DMSO (100 μg CPI pr. mL DMSO) and mixed by pipetting. […] The cells were investigated using an Olympus IX50 fluorescence microscope, and images were captured using a Lumenera CCD camera and in-house developed software. PI and CPI fluorescence were detected using, respectively, U-MWG2 (green long pass: 510-550 nm) and U-MNUA2 (UV band pass, 330-385 nm) filter cubes (Olympus). […]

As to `CC[N+](C)(CC)CCC[n+]1c(-c2ccccc2)c2cc(N)ccc2c2ccc(N)cc21.[I-].[I-]` [PI, propidium iodide], the “staining of Triton X-100 treated cells” value in the test with HEK293 cells is listed as “PI positive”.
In the case of `Cc1c(C)n2c(CCl)c(C)c(=O)n2c1=O` [mCB, monochlorobimane], in test [1], the “staining of cells (UV filter) versus PI positive cells” value is “nearly all the dendritic cells were stained by mCB”.
Regarding `CCN(CC)c1ccc2c(C)c(-c3ccc(NC(=O)CI)cc3)c(=O)oc2c1` [CPI, 7-diethylamino-3-((4′-(iodoacetyl)amino)phenyl)-4-methylcoumarin], the “staining of cells (UV filter) versus PI positive cells” value with Jurkat (JM) cells is on record as “nearly all cells were stained by CPI”.
The same measure, in the same setting: the entry for `O=C1C=CC(=O)N1c1ccc2ccc3cccc4ccc1c2c34` [PM, N-(1-Pyrenyl)maleimide] is “nearly all cells were stained by PM”; for `CCN(CC)c1ccc2c(C)c(-c3ccc(N4C(=O)C=CC4=O)cc3)c(=O)oc2c1` [CPM, 7-diethylamino-3-[4′-maleimidylphenyl]-4-methylcoumarin] it is “nearly all cells were stained by CPM”.

The values above are taken from patent US9128097B2, “Method and kit for assessing viable cells” (ChemoMetec A/S, priority 2008, dated 2015).
